Source: patent US20170168041A1, “Polymers And Oligomers With Aggregation-Induced Emission Characteristics For Imaging And Image-Guided Therapy” (National University of Singapore, priority 2014, published 2017)
pIC50: −log10 of the molar value. Values belong to the compound of their own block, whether it stands above or below them.

How the values were obtained:
[1] = 1O2 quantum yield measurement with ABDA, Rose Bengal standard; format: physicochemical; details: for 1O2 quantum yield: in water, white light, relative to Rose Bengal; for degradation rate of ABDA: white light irradiation, ABDA absorbance at 378 nm
Procedure: The ^1O2-sensitive indicator, 9,10-anthracenediyl-bis(methylene) dimalonic acid (ABDA), was used as the ^1O2-trapping agent, and Rose Bengal (RB) was used as the standard photosensitizer. In these experiments, 10 μL of ABDA solution ([…]) was added to 1 mL of sample solution, and white light (400-800 nm) with a power density of 0.25 W cm^−2 was employed as the irradiation source. The absorbance of ABDA at 378 nm was recorded at different irradiation time to obtain the decay rate of the photosensitizing process. The ^1O2 quantum yield of the PS in water (ΦPS) was calculated using the following formula: […]
Where KPS and KRB are the decomposition rate constants of ABDA by the PSs and RB, respectively. APS and ARB represent the light absorbed by the PSs and RB, respectively, which are determined by integration of the optical absorption bands in the wavelength range 400-800 nm. ΦRB is the ^1O2 quantum yield of RB, and ΦRB=0.75 in water.
To assess capabilities of PPDC, TPPDC, and TPDC in ^1O2 generation, a commercial ^1O2 probe ABDA was used as an indicator and Rose Bengal (RB) was used as the standard photosensitizer (^1O2 quantum yield ORB=0.75 in water). In the presence of PSs or RB under irradiation with white light, the absorbance of the ABDA solution at 378 nm, decreases with prolonged irradiation time, indicating the degradation of ABDA by ^1O2 generated by PSs. […] Thus, the ^1O2 quantum yield of PPDC, TPPDC and TPDC was calculated to be 0.89, 0.32 and 0.28, respectively. These findings agree well with the prediction based on eq. (1).

[2] = in water; cited from earlier work
[3] = ROS generation of AIE residue of prodrug, ABDA absorbance; format: physicochemical; details: 12 min light irradiation, 0.25 W cm-2
Excerpt: The ROS generation of the AIE residue was studied by measuring the absorption spectra of the mixture of TPECB-Pt-D5-cRGD and 9,10-anthracenediyl-bis(methylene)dimalonic acid (ABDA) in DMSO/PBS (v/v=1/199) upon light irradiation. It should be noted that the absorbance of TPECB-Pt-D5-cRGD is low and will not disturb the absorbance change of ABDA. As depicted in FIG. 23D, the absorption peaks at 358 nm, 378 nm and 400 nm attributed to the anthracene moiety in ABDA decreased gradually upon light irradiation. This is due to the fact that ABDA can efficiently trap ROS by fast reaction with the anthracene moiety.

293T cells = assay: MTT anti-proliferative assay; format: cell-based; details: in dark or with light irradiation
Procedure: (§1) Subsequently, the anti-proliferative properties of TPECB-Pt-D5-cRGD towards MDA-MB-231 cells, U87-MG cells, MCF-7 cells and 293T cells were evaluated by MTT assays. The MDA-MB-231 cells are cisplatin resistant while U87-MG cells are cisplatin-sensitive. […] It should be noted that the cytotoxicity of cisplatin to both cells was not affected by the light irradiation.

MCF-7 cells = assay: MTT anti-proliferative assay; format: cell-based; details: in dark or with light irradiation
Procedure: as §1

MDA-MB-231 cells = assay: Combination index (C.I.) analysis from dose-effect profiles; format: cell-based; details: drug effect levels from 75% to 25%
Procedure: To confirm the drug synergy in cRGD-TPE-Pt-DOX, the combination index (C.I.) was calculated. The C.I. derived from the dose-effect profiles was plotted against drug effect level, which provided quantitative information of the combination drug effect, where C.I. values lower than, equal to, or higher than 1 denote synergism, additivity, or antagonism, respectively.
The combination therapy of cisplatin and DOX towards MDA-MB-231 cells was evaluated by the combination index (C.I.) analysis. The C.I. was calculated as follows: C.I.=D1/Df1+D2/Df2+D1D2/Df1Df2. Where. Df1 is the dose of Drug-1 required to produce x percent effect alone and D1 is the dose of Drug-1 required to produce the same x percent effect in combination with Drug-2; similarly, Df2 is the dose of Drug-2 required to produce x percent effect alone and D2 is the dose of Drug-2 required to produce the same x percent effect in combination with Drug-1. Theoretically, C.I. is the ratio of the combination dose to the sum of the single-drug doses at an isoeffective level. Consequently, C.I. values <1 indicate synergism, values >1 show antagonism, and values=1 indicate additive effects.

[4] = system: MDA-MB-231, MCF-7 and 293T cells; assay: Annexin V-FITC/PI apoptosis staining; format: cell-based; details: 6 h incubation; only MDA-MB-231 strong apoptotic fluorescence, MCF-7 and 293T negligible
Procedure: The toxicity of cRGD-TPE-Pt-DOX to different cells was also studied using MDA-MB-231, MCF-7 and 293T cells as examples. After incubation with cRGD-TPE-Pt-DOX for 6 h, the cells were stained with Annexin V-FITC/Propidium Iodide (PI), which are commonly used fluorescent probes to distinguish viable cells from apoptosis ones. […] This should be due to the integrin mediated endocytosis, which leads to selective cellular uptake of the prodrug cRGD-TPE-Pt-DOX.

U87-MG cells = assay: MTT anti-proliferative assay; format: cell-based; details: not affected by light irradiation
Procedure: as §1

degradation rate of ABDA [1]: 0.0032
SMILES: COc1ccc(C(=C(c2ccccc2)c2ccc(-c3ccc(C(C)=C(C#N)C#N)cc3)cc2)c2ccc(OC)cc2)cc1 [PPDC]
1O2 quantum yield [1]: 0.89

SMILES: O=C([O-])c1c(Cl)c(Cl)c(Cl)c(Cl)c1-c1c2cc(I)c(=O)c(I)c-2oc2c(I)c([O-])c(I)cc12.[Na+].[Na+] [Rose Bengal]
1O2 quantum yield of standard [2]: 0.75

degradation rate of ABDA [1]: 0.0013
SMILES: COc1ccc(C(=C(c2ccccc2)c2ccc(C(C)=C(C#N)C#N)cc2)c2ccc(OC)cc2)cc1 [TPDC]
1O2 quantum yield [1]: 0.28

SMILES: COc1ccc(C(=C(c2ccccc2)c2ccc(C(/C=C/c3ccc(OCCCNC(=O)CCC(=O)[O][Pt-2]([NH3+])([NH3+])([Cl])([Cl])[O]C(=O)CCC(=O)N[C@@H](CC(=O)O)C(=O)N[C@@H](CC(=O)O)C(=O)N[C@@H](CC(=O)O)C(=O)N[C@@H](CC(=O)O)C(=O)N[C@@H](CC(=O)O)C(=O)NCCCC[C@@H]4NC(=O)[C@@H](Cc5ccccc5)NC(=O)[C@H](CC(=O)O)NC(=O)CNC(=O)[C@H](CCCNC(=N)N)NC4=O)cc3)=C(C#N)C#N)cc2)c2ccc(OC)cc2)cc1 [TPECB-Pt-D5-cRGD]
ABDA absorption at 400 nm, % of original value [3]: 24.1%
cytotoxicity (293T cells): minimum cytotoxicity
cytotoxicity (MCF-7 cells): minimum cytotoxicity

degradation rate of ABDA [1]: 0.0018
SMILES: COc1ccc(C(=C(c2ccccc2)c2ccc(C(=C(C#N)C#N)c3ccccc3)cc2)c2ccc(OC)cc2)cc1 [TPPDC]
1O2 quantum yield [1]: 0.32

SMILES: COc1cccc2c1C(=O)c1c(O)c3c(c(O)c1C2=O)C(OC1CC(NC(=O)CCC(=O)[O][Pt]([NH2])([NH2])([Cl])([Cl])[O]C(=O)CCC(=O)NCc2cn(Cc4ccc(/C(=C(\c5ccccc5)c5ccc(Cn6cc(C[C@@H]7NC(=O)[C@@H](Cc8ccccc8)NC(=O)[C@H](CC(=O)O)NC(=O)CNC(=O)[C@H](CCCNC(=N)N)NC7=O)nn6)cc5)c5ccccc5)cc4)nn2)C(O)C(C)O1)CC(O)(C(=O)CO)C3 (stereo partly shown) [cRGD-TPE-Pt-DOX]
combination index (C.I.) result (MDA-MB-231 cells): synergistic effect
selective apoptosis [4]: selectively kill integrin overexpressed cancer cells

SMILES: N.N.[Cl][Pt][Cl] [cisplatin]
pIC50 (U87-MG cells): 5.27
